Data reported in patent US6281214A, “Biphenyl derivatives” (Eisai Co., Ltd, priority 1994, dated 2001).

Experiments:
Parameters in all cases: species or system SD rats
serotonin S2 receptor = target: T1, serotonin S2 receptor (Rattus norvegicus, UniProt P14842); experiment: serotonin S2 receptor binding test ([3H] Ketanserin Binding Test); conditions: 1 nM [3H] Ketanserin, rat cortex, 37° C., 15 minutes
T1 construct: The receptor fraction prepared from the cortex was molten and suspended; from tissue; host or cells: cerebral cortex of SD rats (membrane fraction)
How it was run: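 Ki values came from probit IC50s corrected for radioligand concentration and Kd (Scatchard). Binding used 1 nM [3H]ketanserin with SD rat cortex membrane fractions, 15 min at 37 °C in Tris-HCl pH 7.4. Bound radioactivity was measured after GF/B filtration, with methysergide for nonspecific binding.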

dopamine D2 receptor = target: T2, dopamine D2 receptor (Rattus norvegicus, UniProt P61169); experiment: dopamine D2 receptor binding test ([3H] Spiperone Binding Test); conditions: 1 nM [3H] Spiperone, rat corpus striatum, room temperature, 60 minutes; read-out: Ki value, dopamine D2 receptor
T2 construct: the receptor fraction prepared from the corpus striatum was molten and suspended; from tissue; host or cells: corpus striatum of SD rats (membrane fraction)
How it was run: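 Rat (SD, 6–8 weeks) corpus striatum membranes in 50 mM Krebs-Tris pH 7.4 were incubated with 1 nM [3H]spiperone at room temperature for 60 minutes, with nonspecific binding defined by excess spiperone. IC50 came from probit analysis; Ki was derived using radioligand concentration and Scatchard Kd.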

adrenergic α1 receptor = adrenergic α1 receptor binding test ([3H] Prazosin Binding Test); conditions: 1 nM [3H] Prazosin, rat cortex, room temperature, 60 minutes
How it was run: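 Rat (SD, 6-8 weeks) cerebral cortex membranes in 50 mM Tris-HCl pH 7.4 incubated with 1 nM [3H]prazosin for 60 min at room temperature; nonspecific binding defined with phentolamine. IC50 by probit method, converted to Ki using radioligand concentration and Scatchard-derived Kd.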

T1 sequence (P14842 whole entry): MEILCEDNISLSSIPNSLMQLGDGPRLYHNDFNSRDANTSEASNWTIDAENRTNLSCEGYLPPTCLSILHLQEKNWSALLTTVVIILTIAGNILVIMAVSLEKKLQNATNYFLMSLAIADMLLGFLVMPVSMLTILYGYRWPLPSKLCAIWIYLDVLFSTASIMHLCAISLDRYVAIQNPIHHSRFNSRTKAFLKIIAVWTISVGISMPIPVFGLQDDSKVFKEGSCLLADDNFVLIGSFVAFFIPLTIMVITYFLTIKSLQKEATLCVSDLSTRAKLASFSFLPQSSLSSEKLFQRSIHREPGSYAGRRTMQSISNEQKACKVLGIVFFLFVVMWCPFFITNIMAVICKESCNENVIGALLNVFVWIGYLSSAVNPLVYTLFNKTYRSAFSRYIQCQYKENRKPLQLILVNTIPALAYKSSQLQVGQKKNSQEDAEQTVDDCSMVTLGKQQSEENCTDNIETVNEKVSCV
T2 sequence (P61169 whole entry): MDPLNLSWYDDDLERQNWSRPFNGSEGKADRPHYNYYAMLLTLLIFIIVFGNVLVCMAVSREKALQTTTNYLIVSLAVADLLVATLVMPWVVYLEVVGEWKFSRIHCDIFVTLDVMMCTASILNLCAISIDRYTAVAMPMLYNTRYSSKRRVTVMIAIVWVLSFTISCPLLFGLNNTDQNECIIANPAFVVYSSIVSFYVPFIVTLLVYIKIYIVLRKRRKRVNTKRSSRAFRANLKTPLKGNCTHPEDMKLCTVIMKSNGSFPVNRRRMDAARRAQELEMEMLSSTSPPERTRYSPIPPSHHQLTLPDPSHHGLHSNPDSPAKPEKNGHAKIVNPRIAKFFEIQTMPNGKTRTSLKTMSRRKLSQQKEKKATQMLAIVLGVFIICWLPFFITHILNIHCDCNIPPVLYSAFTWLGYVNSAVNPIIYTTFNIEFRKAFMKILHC

Row | Compound | Ki (serotonin S2 receptor) [nM] | Ki (dopamine D2 receptor) [nM] | Ki (adrenergic α1 receptor) [nM]
1 | CCN1CCN(c2cc(N)c(OC)c(-c3ccccc3)c2)CC1 [Example 110, 1-Ethyl-4-(3-phenyl-4-methoxy-5-amino)phenylpiperazine] | > 1000 | > 1000 | > 1000
2 | CCOC(=O)CCc1cc(N2CCN(CC)CC2)cc(-c2ccccc2)c1OC [Example 111, 1-Ethyl-4-[3-phenyl-4-methoxy-5-(2-ethoxycarbonylethyl)]phenylpiperazine] | 58 | 41.9 | 210
3 | CCN1CCN(c2cc(-c3ccccc3)c(OC)c(C(O)c3ccccn3)c2)CC1 (stereo not drawn) [Example 112, 1-Ethyl-4-[3-phenyl-4-methoxy-5-(2-pyridyl)hydroxymethyl]phenylpiperazine] | 7 | 972 | > 1000
4 | CCCc1cc(-c2ccccc2)cc(N2CCN(CC)CC2)c1OC [Example 113, 1-Ethyl-4-(3-phenyl-5-propyl-6-methoxy)phenylpiperazine hyrochloroide] | 21.1 | 8.73 | 28.9
5 | CCN1CCN(c2cc(CCC(C)=O)c(OC)c(-c3ccccc3)c2)CC1 [Example 114, 1-Ethyl-4-[3-phenyl-4-methoxy-5-(2-acetylethyl)]phenylpiperazine] | 151 | 165 | 569
6 | CCC(OCc1ccccn1)c1cc(N2CCN(CC)CC2)cc(-c2ccccc2)c1OC (stereo not drawn) [Example 115, 1-Ethyl-4-{3-phenyl-4-methoxy-5-[1-(2-pyridylmethoxy)propyl]}phenylpiperazine] | 212 | 81.4 | > 1000
7 | CCCc1cc(N2CCN(CC)CC2)cc(-c2ccccc2C)c1OC [Example 116, 1-Ethyl-4-[3-(2-tolyl)-4-methoxy-5-propyl]phenylpiperazine] | 39.5 | 9.65 | > 1000
8 | CCCNc1cc(N2CCN(CC)CC2)cc(-c2ccccc2)c1OC [Example 117, 1-Ethyl-4-(3-phenyl-4-methoxy-5-propylamino)phenylpiperazine] | 148 | 49.6 | 334
9 | O=C(Cc1ccccc1)c1cc(N2CCNCC2)cc(-c2ccccc2)c1O [Example 118, 1-(3-Phenyl-4-hyroxy-5-phenylaectyl)phenylpiperazine] | 468 | 149 | > 1000
10 | CCN1CCN(c2cc(-c3ccccc3)c(OC)c([S+]([O-])Cc3ccccc3)c2)CC1 (stereo not drawn) [Example 119, 1-Ethyl-4-(3-phenyl-4-methoxy-5-benzylsulfinyl)phenylpiperazine] | 34.9 | 35.8 | > 1000
11 | CCN1CCN(c2cc(-c3ccccc3)c(OC)c(C(F)Cc3ccncc3)c2)CC1 (stereo not drawn) [Example 121, 1-Ethyl-4-{3-phenyl-4-methoxy-5-[1-fluoro-2-(4-pyridyl)ethyl]}phenylpiperazine] | 168 | 11 | 308
12 | CCN1CCN(c2cc(-c3ccccc3)c(OC)c(N(C)S(=O)(=O)CC)c2)CC1 [Example 122, 1-Ethyl-4-[3-phenyl-4-methoxy-5-(N-ethanesulfonyl-N-methylamino)]phenylpiperazine] | 123 | 45.9 | 68.1
13 | CCNS(=O)(=O)c1cc(N2CCN(CC)CC2)cc(-c2ccccc2)c1OC [Example 123, 1-Ethyl-4-(3-phenyl-4-methoxy-5-ethylaminofonyl)phenylpiperazine] | 17.9 | 27 | > 1000
14 | CCN1CCN(c2cc(-c3ccccc3)c(OC)c(S(N)(=O)=O)c2)CC1 [Example 124, 1-Ethyl-4-(3-phenyl-4-methoxy-5-aminosulfonyl)phenylpiperazine] | > 1000 | 99.2 | > 1000
15 | COc1c(C(=O)Cc2ccccc2)cc(N2CCNCC2)cc1-c1ccccc1 [Example 125, 1-(3-phenyl-4-methoxy-5-phenylacetyl)phenylpiperazine] | 1.49 | 101 | > 1000
